# Test results: patent US20230158005A1 (priority 2020, published 2023)
# Several values for one entry are separate records, joined by “and”; a condition that tells them apart may be missing. Equal values may be shown once.
# Legend:
# [1] = system: A/Solomon Islands/03/2006 (H1N1); type: cell-based, influenza A virus
# A/Hawaii/15/2001 (H1N1) = type: cell-based, influenza A virus
# [2] = system: A/California/07/2009 (H1N1); type: cell-based, influenza A virus
# [3] = system: A/Minnesota/19/2011 (H1N1); type: cell-based, influenza A virus
# [4] = system: A/New Jersey/8/1976 (H1N1); type: cell-based, influenza A virus
# A/USSR/90/1977 (H1N1) = type: cell-based, influenza A virus
# [5] = system: A/Puerto Rico/8/1934 (H1N1); type: cell-based, influenza A virus
# [6] = system: A/New Caledonia/20/1999 (H1N1); type: cell-based, influenza A virus
# A/Indiana/08/2011 (H3N2) = type: cell-based, influenza A virus
# [7] = system: A/California/02/2014 (H3N2); type: cell-based, influenza A virus
# A/Texas/71/2007 (H3N2) = type: cell-based, influenza A virus
# A/Perth/16/2009 (H3N2) = type: cell-based, influenza A virus
# A/Fujian/413/2002 (H3N2) = type: cell-based, influenza A virus
# A/Alaska/140/2015 (H3N2) = type: cell-based, influenza A virus
# [8] = system: A/Hong Kong/156/1997 (H5N1); type: cell-based, influenza A virus
# [9] = system: A/Egypt/N6658/2011 (H5N1); type: cell-based, influenza A virus
# [10] = system: A/Vietnam/1203/2004 (H5N1); type: cell-based, influenza A virus
# [11] = system: A/Indonesia/05/2005 (H5N1); type: cell-based, influenza A virus
# A/Anhui/1/2013 (H7N9) = type: cell-based, influenza A virus
# [12] = system: panel of 20 influenza A viruses; type: cell-based, influenza A virus
# NL4-3 WT HIV-1 virus = assay: Infectious HIV-1 released by infected MT-2 cells (TZM-bl luciferase reporter); type: cell-based; details: 10 nM, 48 hours
# MT-2 human T cell line = assay: Cytotoxicity against uninfected MT-2 cells; type: cell-based; details: 1 µM, 48 hours
# [13] = system: Nipah virus (Malaysian strain); assay: microbe, parasite or virus in culture; type: cell-based
# [14] = system: A549 human lung carcinoma cells; details: human
# in vitro [15] = details: human, % Dif (absorbance as percent relative to the vehicle control, relative viability)
# in vitro [16] = details: human
# [17] = system: relapsed/refractory, locally advanced or metastatic solid tumors; details: preliminary clinical results, cited from earlier work
smiles,measurement,setting,value
"CC1=C(COCCC(C)(C)C)C(=O)N(Nc2ccc(C(F)(F)F)c(Cl)n2)C1=O [felezonexor, 3-[(3,3-dimethylbutoxy)methyl]-1-{[6-chloro-5-(trifluoromethyl) (2-pyridyl)]amino}-4-methylazoline-2,5-dione]",Virus titer AVG,[1],6.00 log10TCID50/mL and 7.17 log10TCID50/mL and 7.79 log10TCID50/mL
same,"Virus titer, replicates 1-3",[1],6.50 log10TCID50/mL and 6.75 log10TCID50/mL and 7.38 log10TCID50/mL and 5.75 log10TCID50/mL (2×) and 7.50 log10TCID50/mL (2×) and 8.50 log10TCID50/mL and 7.25 log10TCID50/mL
same,Virus titer AVG,A/Hawaii/15/2001 (H1N1),2.67 log10TCID50/mL and 3.67 log10TCID50/mL and 4.83 log10TCID50/mL
same,"Virus titer, replicates 1-3",A/Hawaii/15/2001 (H1N1),2.50 log10TCID50/mL and 3.75 log10TCID50/mL (2×) and 4.75 log10TCID50/mL (2×) and 2.75 log10TCID50/mL (2×) and 3.50 log10TCID50/mL and 5.00 log10TCID50/mL
same,Virus titer AVG,[2],2.75 log10TCID50/mL and 4.42 log10TCID50/mL and 5.42 log10TCID50/mL
same,"Virus titer, replicates 1-3",[2],3.25 log10TCID50/mL and 4.25 log10TCID50/mL and 5.50 log10TCID50/mL and 2.50 log10TCID50/mL (2×) and 4.50 log10TCID50/mL (2×) and 5.75 log10TCID50/mL and 5.00 log10TCID50/mL
same,reduction in viral titers,[2],greater than 1.0 log10TCID50/mL
same,"Virus titer, replicates 1-3",[3],2.50 log10TCID50/mL and 6.75 log10TCID50/mL (2×) and 7.25 log10TCID50/mL (2×) and 3.25 log10TCID50/mL and 8.50 log10TCID50/mL and 2.75 log10TCID50/mL and 9.25 log10TCID50/mL
same,reduction in viral titers,[3],greater than 1.0 log10TCID50/mL
same,Virus titer AVG,[4],3.67 log10TCID50/mL and 4.00 log10TCID50/mL and 4.17 log10TCID50/mL
same,"Virus titer, replicates 1-3",[4],3.75 log10TCID50/mL (3×) and 3.50 log10TCID50/mL (2×) and 4.25 log10TCID50/mL (3×) and 4.50 log10TCID50/mL
same,reduction in viral titers,[4],greater than 1.0 log10TCID50/mL
same,"Virus titer, replicates 1-3",A/USSR/90/1977 (H1N1),1.50 log10TCID50/mL (3×) and 5.25 log10TCID50/mL and 5.75 log10TCID50/mL (3×) and 4.25 log10TCID50/mL (2×)
same,reduction in viral titers,A/USSR/90/1977 (H1N1),greater than 1.0 log10TCID50/mL
same,Virus titer AVG,[5],3.42 log10TCID50/mL and 4.92 log10TCID50/mL
same,"Virus titer, replicates 1-3",[5],3.50 log10TCID50/mL (2×) and 3.25 log10TCID50/mL (3×) and 4.75 log10TCID50/mL and 4.50 log10TCID50/mL and 3.75 log10TCID50/mL and 5.50 log10TCID50/mL
same,reduction in viral titers,[5],greater than 1.0 log10TCID50/mL
same,Virus titer AVG,[6],7.17 log10TCID50/mL and 6.83 log10TCID50/mL and 7.00 log10TCID50/mL
same,"Virus titer, replicates 1-3",[6],6.75 log10TCID50/mL (2×) and 7.25 log10TCID50/mL (2×) and 8.00 log10TCID50/mL and 6.50 log10TCID50/mL (3×) and 7.50 log10TCID50/mL
same,reduction in viral titers,[6],no reduction in viral titers
same,"Virus titer, replicates 1-3",A/Indiana/08/2011 (H3N2),3.25 log10TCID50/mL (2×) and 5.50 log10TCID50/mL (2×) and 6.75 log10TCID50/mL and 6.50 log10TCID50/mL and 7.50 log10TCID50/mL and 2.75 log10TCID50/mL and 8.50 log10TCID50/mL
same,reduction in viral titers,A/Indiana/08/2011 (H3N2),greater than 1.0 log10TCID50/mL
same,"Virus titer, replicates 1-3",[7],1.50 log10TCID50/mL (3×) and 5.25 log10TCID50/mL and 6.50 log10TCID50/mL (2×) and 4.75 log10TCID50/mL and 7.75 log10TCID50/mL and 4.50 log10TCID50/mL
same,reduction in viral titers,[7],greater than 1.0 log10TCID50/mL
same,Virus titer AVG,A/Texas/71/2007 (H3N2),2.50 log10TCID50/mL and 3.33 log10TCID50/mL and 3.92 log10TCID50/mL
same,"Virus titer, replicates 1-3",A/Texas/71/2007 (H3N2),3.25 log10TCID50/mL (2×) and 4.00 log10TCID50/mL and 3.75 log10TCID50/mL (2×) and 2.75 log10TCID50/mL (2×) and 1.50 log10TCID50/mL and 4.25 log10TCID50/mL
same,reduction in viral titers,A/Texas/71/2007 (H3N2),greater than 1.0 log10TCID50/mL
same,"Virus titer, replicates 1-3",A/Perth/16/2009 (H3N2),2.25 log10TCID50/mL and 3.50 log10TCID50/mL (2×) and 4.75 log10TCID50/mL and 1.50 log10TCID50/mL and 4.25 log10TCID50/mL (2×) and 2.50 log10TCID50/mL and 3.25 log10TCID50/mL
same,Virus titer AVG,A/Fujian/413/2002 (H3N2),3.25 log10TCID50/mL and 3.50 log10TCID50/mL
same,"Virus titer, replicates 1-3",A/Fujian/413/2002 (H3N2),3.00 log10TCID50/mL and 3.25 log10TCID50/mL (3×) and 3.50 log10TCID50/mL (2×) and 3.75 log10TCID50/mL (2×) and 2.75 log10TCID50/mL
same,reduction in viral titers,A/Fujian/413/2002 (H3N2),no reduction in viral titers
same,"Virus titer, replicates 1-3",A/Alaska/140/2015 (H3N2),1.50 log10TCID50/mL (4×) and 6.50 log10TCID50/mL and 2.50 log10TCID50/mL and 7.00 log10TCID50/mL and 2.25 log10TCID50/mL and 6.25 log10TCID50/mL
same,reduction in viral titers,A/Alaska/140/2015 (H3N2),greater than 1.0 log10TCID50/mL
same,Virus titer AVG,[8],2.42 log10TCID50/mL and 3.58 log10TCID50/mL and 4.50 log10TCID50/mL
same,"Virus titer, replicates 1-3",[8],2.25 log10TCID50/mL (2×) and 3.50 log10TCID50/mL (2×) and 4.25 log10TCID50/mL and 2.75 log10TCID50/mL and 4.75 log10TCID50/mL and 3.75 log10TCID50/mL and 4.50 log10TCID50/mL
same,reduction in viral titers,[8],greater than 1.0 log10TCID50/mL
same,Virus titer AVG,[9],4.08 log10TCID50/mL and 4.33 log10TCID50/mL and 4.92 log10TCID50/mL
same,"Virus titer, replicates 1-3",[9],4.00 log10TCID50/mL and 4.25 log10TCID50/mL (2×) and 5.50 log10TCID50/mL and 4.50 log10TCID50/mL (3×) and 3.75 log10TCID50/mL and 4.75 log10TCID50/mL
same,reduction in viral titers,[9],greater than 1.0 log10TCID50/mL
same,Virus titer AVG,[10],6.58 log10TCID50/mL and 8.50 log10TCID50/mL and 8.17 log10TCID50/mL
same,"Virus titer, replicates 1-3",[10],6.50 log10TCID50/mL (2×) and 8.25 log10TCID50/mL (2×) and 8.50 log10TCID50/mL and 6.75 log10TCID50/mL and 7.75 log10TCID50/mL (2×) and 9.50 log10TCID50/mL
same,reduction in viral titers,[10],greater than 1.0 log10TCID50/mL
same,Virus titer AVG,[11],4.83 log10TCID50/mL and 6.92 log10TCID50/mL and 7.58 log10TCID50/mL
same,"Virus titer, replicates 1-3",[11],4.50 log10TCID50/mL and 6.50 log10TCID50/mL and 7.50 log10TCID50/mL (3×) and 5.25 log10TCID50/mL and 6.75 log10TCID50/mL and 4.75 log10TCID50/mL and 7.75 log10TCID50/mL
same,reduction in viral titers,[11],greater than 1.0 log10TCID50/mL
same,Virus titer AVG,A/Anhui/1/2013 (H7N9),1.50 log10TCID50/mL and 2.50 log10TCID50/mL and 2.67 log10TCID50/mL
same,"Virus titer, replicates 1-3",A/Anhui/1/2013 (H7N9),1.50 log10TCID50/mL (3×) and 2.25 log10TCID50/mL and 2.75 log10TCID50/mL (3×) and 2.50 log10TCID50/mL (2×)
same,reduction in viral titers,A/Anhui/1/2013 (H7N9),greater than 1.0 log10TCID50/mL
same,strains with viral titers reduced at least 3-fold compared to untreated controls,[12],17 out of 20 strains
same,strains with viral titers reduced at least 10-fold compared to untreated controls,[12],13 out of 20 strains
same,reduction of the production of infectious virus,NL4-3 WT HIV-1 virus,more than 50%
same,MT-2 cells killed,MT-2 human T cell line,about 50%
same,"selectivity index (SI, CC50/EC50)",[13],12
same,EC50,"[13]; Henipavirus nipahense, HeLa, 48 h, read-out: EC50 (compound concentration that reduces viral replication by 50%)",20 nM
same,tolerated concentration (relative viability equivalent or greater than untreated controls),[14],up to 100 nM
same,"% Dif (absorbance as percent relative to the vehicle control, relative viability)",[14]; 0.5 µM,71.6%
same,viability at 0.05 µM,in vitro [15],101%
same,viability at 0.1 µM,in vitro [15],125%
same,viability at 0.25 µM,in vitro [15],66.2%
same,viability at 0.5 µM,in vitro [15],71.6%
same,viability at 1 µM,in vitro [15],58.7%
same,CC50,in vitro [16],240 nM
same,Safety and tolerability,[17]; 57 patients with solid tumors,manageable
same,most common treatment related adverse events,[17]; 57 patients with solid tumors,"gastrointestinal (nausea, vomiting, and diarrhea) and constitutional (fatigue, decreased appetite)"
same,antitumor activity,"[17]; 57 patients, heavily pre-treated solid tumors","durable responses, including a partial response"
